Test results from PubChem BioAssay (NCI).
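Compound exposure: 48 hours, 5 concentrations, 96-well plates. At the GI50, growth is halved. At the TGI there is no net growth.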

What was measured:
Test in all cases: DTP human tumour cell line panel, 48 h
[1] = tested on: A498 renal
[2] = tested on: CAKI-1 renal
[3] = tested on: KM12 colon
[4] = tested on: OVCAR-4 ovarian
[5] = tested on: OVCAR-5 ovarian
[6] = tested on: RPMI-8226 leukemia
[7] = tested on: SK-MEL-2 melanoma
[8] = tested on: SK-MEL-5 melanoma
[9] = tested on: ACHN renal
[10] = tested on: T-47D breast

SMILES	TGI [1]	TGI [2]	TGI [3]	TGI [4]	TGI [5]	TGI [6]	TGI [7]	TGI [8]	GI50 [1]	GI50 [9]	TGI [9]	GI50 [2]	GI50 [4]	GI50 [5]	GI50 [6]	GI50 [7]	GI50 [8]	GI50 [10]	TGI [10]
COc1ccc(OCC(C)(C)O)cc1	> 100 µM	> 100 µM	> 100 µM	> 100 µM	> 100 µM	> 100 µM	> 100 µM	> 100 µM	–	–	–	–	–	–	–	–	–	–	–
CCCCCCCCCC[N+](C)(C)C	7.81 µM	15.3 µM	–	14.5 µM	3.89 µM	2.9 µM	6.61 µM	3.26 µM	1.78 µM	2.39 µM	12.5 µM	2.52 µM	2.2 µM	1.05 µM	0.604 µM	2.41 µM	1.73 µM	1.91 µM	8.33 µM
COc1ccc2c(c1)c(=O)c1c(NCCCN(C)C)ccc3ncn2c31	24.2 µM	22.6 µM	15.5 µM	13 µM	25.5 µM	> 27.7 µM	22.1 µM	24.3 µM	–	–	16.8 µM	–	–	–	–	–	–	–	32.8 µM
CSS(C)(=O)=O	> 100 µM	43.2 µM	87.1 µM	64.3 µM	49.1 µM	5.36 µM	60.2 µM	> 100 µM	–	–	56.9 µM	–	–	–	–	–	–	–	57.2 µM
CCOC(=O)/C=C/c1c[nH]c(=O)[nH]c1=O	> 75 µM	> 75 µM	> 75 µM	> 75 µM	> 75 µM	> 57 µM	> 75 µM	> 75 µM	–	–	–	–	–	–	–	–	–	–	–
c1ccc(N2N=C3N(c4ccccc4)C2N3c2ccccc2)cc1	> 100 µM	> 100 µM	> 100 µM	> 100 µM	> 100 µM	48.7 µM	73 µM	63.4 µM	–	–	> 100 µM	–	–	–	–	–	–	–	> 100 µM
COc1ccc(-c2c3c(nc4[nH]c(=S)[nH]c(=S)c24)CCCC3)cc1OC	–	> 100 µM	> 100 µM	> 100 µM	> 100 µM	> 100 µM	–	32.6 µM	–	–	> 100 µM	–	–	–	–	–	–	–	> 100 µM
CCOC(=O)C1=C(C)N(C2OC(COC(C)=O)C(OC(C)=O)C(OC(C)=O)C2OC(C)=O)C(=O)NC1c1ccccc1 (stereo not drawn)	> 100 µM	> 100 µM	> 100 µM	> 100 µM	> 100 µM	> 100 µM	> 100 µM	> 100 µM	–	–	> 100 µM	–	–	–	–	–	–	–	–
CC(c1ccccc1)C(O)S(=O)(=O)O (stereo not drawn)	> 100 µM	–	> 100 µM	> 100 µM	> 100 µM	> 100 µM	> 100 µM	–	–	–	> 100 µM	–	–	–	–	–	–	–	–
CCCCn1c(C)c2c(c1C)C(=O)N(CCN1CCN(c3ccccc3Cl)CC1)C2=O	> 100 µM	> 100 µM	> 100 µM	> 100 µM	> 100 µM	55.1 µM	49 µM	34.9 µM	–	–	> 100 µM	–	–	–	–	–	–	–	75 µM
